{
  "source": "patent US20230404989A1",
  "about": "“GRK2 INHIBITION BY PAROXETINE AMELIORATES OSTEOARTHRITIS” (THE PENN STATE RESEARCH FOUNDATION, priority 2020, published 2023)",
  "system": "PTH1R Gas/cAMP signaling",
  "experiment": "PTH-stimulated cAMP in articular cartilage explants of sham or DMM mice treated with paroxetine",
  "set-up": "species or system mouse",
  "details": "paroxetine ip 5 mg/kg/day for 8 weeks, cartilage stimulated with PTH ex vivo, 30 minutes",
  "method": "Methods: Destabilization of the medial meniscus (DMM) surgery was used to simulate clinical post-traumatic OA. First, we determined the role of GRK2 inhibition in PTH1R Gas-cAMP signaling: 12 week old male mice underwent sham or DMM surgery and were treated with either vehicle or the GRK2 inhibitor “paroxetine” (ip, 5 mg/kg/day), treatment was initiated at the time of surgery and continued daily until 8 weeks. Knees were harvested and articular cartilage was obtained for ex vivo analysis of Gas activity. In ex vivo culture, cartilage explants were treated with PTH as an agonist to stimulate PTH1R-Ga-cAMP signaling. Thirty minutes following PTH stimulation, cartilage tissue was homogenized and cAMP levels were measured. Then, we determined the role of GRK2 inhibition in recovering or even potentiating PTH1R signaling in OA cartilage: 12 week old male mice underwent sham or DMM surgery, and received treatment with vehicle, PTH (sc, 40 μg/kg/day) alone, the GRK2 inhibitor “paroxetine3” (ip, 5 mg/kg/day) alone, or their combination. Treatment was initiated at week 8 following DMM surgery, where OA is in progress, and continued until week 12 where mice were sacrificed. […] Results are expressed as mean values+s.e.m. with an N=5-8 mice per experimental group. […]",
  "data": [
    {"compound": "Fc1ccc([C@@H]2CCNC[C@H]2COc2ccc3c(c2)OCO3)cc1", "note": "[paroxetine]", "values": [
      {"measurement": "PTH/PTH1R-mediated cAMP production", "setting": "DMM mice", "result": "recovered"},
      {"measurement": "PTH/PTH1R-mediated cAMP production", "setting": "sham mice", "result": "potentiated"}
    ]}
  ]
}
